9 compounds from publication PMC6036174 (Frontiers in Microbiology, 2018) can be followed below.

Series [1] has as its system A549 lung epithelial cells. Kind of series: A549 cell cytotoxicity (MTT). The settings on record: 48 h incubation, MTT, called CC50 in methods; for IC50: read-out: Cytotoxicity IC50 A549 cells.
The subject of series [2] is VERO (ATCC CCL-81) normal epithelial cells. Kind of series: VERO cell cytotoxicity (resazurin). Particulars: 24 h incubation, called CC50 in methods; for IC50: read-out: Cytotoxicity IC50 VERO cells. For orientation: The colour change of resazurin is a common sign of viable cells or microbes.
Series [3] relates to M. tuberculosis H37Rv (ATCC 27294). Kind of series: resazurin microtiter assay, MIC against M. tuberculosis H37Rv. The format is cell-based, Mycobacterium tuberculosis. The settings on record: 7 days 37°C, 90% inhibition of growth.
The subject of another series is M. tuberculosis CDC1551. Kind of series: broth tube MIC (visible pellet) against M. tuberculosis CDC1551. In kind it is cell-based, Mycobacterium tuberculosis. Particulars: for MIC100 / MIC / fold increase in potency compared to INH: M. tuberculosis CDC1551; for MIC100 / MIC: 14 days 37°C, no visible pellet; for MIC: read-out: MIC100.
The subject of a further series is G. mellonella larvae. Kind of series: in vivo toxicity in Galleria mellonella larvae. The settings on record: for % Mortality: 72 h post-injection; for In vivo G. mellonella tolerance order in μmol / In vivo G. mellonella tolerance order in μmol (Normalized against no. of phens): rank; for In vivo G. mellonella tolerance order in μmol: 1st = best tolerated, from Table 2; for In vivo G. mellonella tolerance order in μmol (Normalized against no. of phens): normalized with respect to phen content. How it is done: G. mellonella larvae in the 6th developmental stage were used to determine the in vivo cytotoxicity of the test complexes (Kellett et al., [2011]; Desbois and Coote, [2012]; McCann et al., [2012]). Thirty healthy larvae, each weighing between 0.2 and 0.4 g and with no cuticle discolouration, were used for each experiment. Fresh solutions of the test complexes were prepared immediately prior to testing under sterile conditions. Test compounds (0.05 g) were dissolved in DMSO (1 mL) and added to sterile water (9 mL) to give a stock solution/suspension (5,000 μg/mL). Test solutions/suspensions were prepared from the corresponding stock solution using Millipore water only to dilute to the desired concentration and each compound was screened across the concentration range of 5,000–100 mg/L. Test solutions/suspensions (20 μL) were administered to the larvae by injection directly into the haemocoel through the last pro-leg. The base of the pro-leg can be opened by applying gentle pressure to the sides of the larvae and this aperture will re-seal after removal of the syringe without leaving a scar. Larvae were placed in sterile Petri dishes and incubated at 30°C for 72 h. The survival of the larvae was monitored every 24 h. Death was assessed by the lack of movement in response to stimulus together with discolouration of the cuticle. Three controls were employed in all assays. The first consisted of untouched larvae maintained at the same temperature as the test larvae. The second was larvae with the pro-leg pierced with an inoculation needle but no solution injected. The third control was larvae that were inoculated with 20 μL of sterile water.

Series [4] in a line: solubility in water (descriptive). The format is physicochemical.
[5] abbreviates: 40 μg per larvae (133.33 mg/kg).
Setting [6] is: 100 μg per larvae (333.33 mg/kg).

Like-named read-outs stand apart in the source and are kept apart here.

For the compound `O.O.[Cl-].[Cl-].[Mn+2]` [MnCl2·2H2O, reference compound], in series [1], the “Cytotoxicity IC50 A549 cells” value was 153.4 µg/mL. Moreover, the “Cytotoxicity IC50 VERO cells” value in series [2] was determined as 92.1 µg/mL.

The term IC50 denotes the point on the concentration scale where inhibition reaches its midpoint. On to `[Cl-].[Cl-].[Mn+2]` [MnCl2·2H2O, reference compound], for which the 50% inhibitory concentration (IC50) in series [1] amounted to 947 µM; in series [2] it was 569 µM.

Broadly, the MIC90 is the lowest concentration that inhibits either 90% of growth or 90% of the strains tested, depending on the study. For the compound `O.O.O=C([O-])c1ccccc1C(=O)[O-].[Mn+2].c1cnc2c(c1)ccc1cccnc12` [compound 5, [Mn(ph)(phen)(H2O)2]], the results for the MIC90 in series [3] and in series [3] (read-out: MIC90) were 0.57 µg/mL and 1.31 µM, respectively. The MIC100 against M. tuberculosis CDC1551 is < 0.19 µg/mL. Also, the MIC with M. tuberculosis CDC1551 was < 0.44 µM. Further, the “% Mortality” value is 0% in the series on G. mellonella larvae (10 μg per larvae (33.33 mg/kg)), 80% in the series with G. mellonella larvae (20 μg per larvae (66.67 mg/kg)), 90% in the series on G. mellonella larvae (setting [5]) and 90% in the series on G. mellonella larvae (setting [6]). For the same compound, the “In vivo G. mellonella tolerance order in μmol” value in the series on G. mellonella larvae was 6th. The “In vivo G. mellonella tolerance order in μmol (Normalized against no. of phens)” value in the series on G. mellonella larvae was found to be 6th. Further, in series [4], the solubility in water entry is “water-insoluble”. In addition, the “Cytotoxicity IC50 A549 cells” value in series [1] was found to be 234.51 µg/mL. Besides, the half-maximal inhibitory concentration (IC50) in series [1] was 539 µM; in series [2], 35.8 µM. In series [2], the “Cytotoxicity IC50 VERO cells” value is 15.6 µg/mL.

`O.O.O.O.O.O=C([O-])c1ccccc1C(=O)[O-].[Mn+2].c1cnc2c(c1)ccc1cccnc12.c1cnc2c(c1)ccc1cccnc12` [compound 6, [Mn(ph)(phen)2(H2O)]·4H2O]: the MIC90 in series [3] came to 1.42 µg/mL; in series [3] (read-out: MIC90), 2.12 µM. In the series with M. tuberculosis CDC1551, this compound registered an MIC100 of 0.38 µg/mL. The MIC in the series with M. tuberculosis CDC1551 turned out to be 0.57 µM. Also, the “% Mortality” value was 0% in the series with G. mellonella larvae (10 μg per larvae (33.33 mg/kg)), 80% in the series with G. mellonella larvae (20 μg per larvae (66.67 mg/kg)), 90% in the series with G. mellonella larvae (setting [5]) and 90% with G. mellonella larvae (setting [6]). Also, the “In vivo G. mellonella tolerance order in μmol” value in the series with G. mellonella larvae stood at 7th. In addition, the “In vivo G. mellonella tolerance order in μmol (Normalized against no. of phens)” value in the series with G. mellonella larvae was 5th. Moreover, the solubility in water result in series [4] was “water-insoluble”. Besides, the “Cytotoxicity IC50 A549 cells” value in series [1] was 259.34 µg/mL. The half-inhibitory concentration (IC50) in series [1] came to 387 µM; in series [2], 17.5 µM. Besides, in series [2], the “Cytotoxicity IC50 VERO cells” value is 11.7 µg/mL.

For `O.O.O.O.O=C([O-])c1cccc(C(=O)[O-])c1.O=C([O-])c1cccc(C(=O)[O-])c1.[Mn+2].[Mn+2].c1cnc2c(c1)ccc1cccnc12.c1cnc2c(c1)ccc1cccnc12.c1cnc2c(c1)ccc1cccnc12` [compound 7, [Mn2(isoph)2(phen)3]·4H2O], the MIC90 was 1.56 µg/mL in series [3] and 1.48 µM in series [3] (read-out: MIC90). Further, the “% Mortality” value in the series with G. mellonella larvae (10 μg per larvae (33.33 mg/kg)) is 0%; in the series with G. mellonella larvae (20 μg per larvae (66.67 mg/kg)), 60%; with G. mellonella larvae (setting [5]) it was 80%; in the series on G. mellonella larvae (setting [6]) it was 90%. In addition, the “In vivo G. mellonella tolerance order in μmol” value in the series on G. mellonella larvae was determined as 4th. Also, the “In vivo G. mellonella tolerance order in μmol (Normalized against no. of phens)” value with G. mellonella larvae amounted to 3rd. Also, the solubility in water result in series [4] is recorded as “water-insoluble”. For the same compound, the “Cytotoxicity IC50 A549 cells” value in series [1] was found to be 255.87 µg/mL. In addition, the results for the concentration for half-maximal inhibition (IC50) in series [1] and in series [2] were 244 µM and 119 µM, respectively. For the same compound, the “Cytotoxicity IC50 VERO cells” value in series [2] is 125 µg/mL.

As to `O.O.O.O.O.O.O.O.O.O.O.O.O.O.O.O.O=C([O-])c1cccc(C(=O)[O-])c1.O=C([O-])c1cccc(C(=O)[O-])c1.[Mn+2].[Mn+2].c1cnc2c(c1)ccc1cccnc12.c1cnc2c(c1)ccc1cccnc12.c1cnc2c(c1)ccc1cccnc12.c1cnc2c(c1)ccc1cccnc12.c1cnc2c(c1)ccc1cccnc12` [compound 8, {[Mn(phen)2(H2O)2]}2(isoph)2(phen)·12H2O], the MIC90 was determined as 3.01 µg/mL in series [3] and 1.85 µM in series [3] (read-out: MIC90). In addition, in the series on M. tuberculosis CDC1551, the “fold increase in potency compared to INH” value is recorded as ~3 fold. In addition, the “% Mortality” value in the series with G. mellonella larvae (10 μg per larvae (33.33 mg/kg)) is 0%; with G. mellonella larvae (20 μg per larvae (66.67 mg/kg)), 80%; in the series on G. mellonella larvae (setting [5]), 90%; in the series with G. mellonella larvae (setting [6]) it was 90%. The “In vivo G. mellonella tolerance order in μmol” value with G. mellonella larvae is 9th. The “In vivo G. mellonella tolerance order in μmol (Normalized against no. of phens)” value with G. mellonella larvae was 5th. Besides, the solubility in water result in series [4] is recorded as “water-insoluble”. The “Cytotoxicity IC50 A549 cells” value in series [1] stood at 251.76 µg/mL. For the same compound, the IC50 in series [1] was found to be 155 µM; in series [2], 28.8 µM. For the same compound, the “Cytotoxicity IC50 VERO cells” value in series [2] stood at 46.9 µg/mL.

In the case of `O.O.O.O.O.O=C([O-])c1ccc(C(=O)[O-])cc1.[Mn+2].c1cnc2c(c1)ccc1cccnc12.c1cnc2c(c1)ccc1cccnc12` [compound 9, [Mn(tereph)(phen)2]·5H2O], the values for the MIC90 in series [3] and in series [3] (read-out: MIC90) were 3.41 µg/mL and 5.09 µM, respectively. The compound also gave an MIC100 in the series with M. tuberculosis CDC1551 of 0.38 µg/mL. Moreover, in the series with M. tuberculosis CDC1551, the MIC came out at 0.57 µM. The “% Mortality” value in the series with G. mellonella larvae (10 μg per larvae (33.33 mg/kg)) amounted to 0%; with G. mellonella larvae (20 μg per larvae (66.67 mg/kg)), 80%; with G. mellonella larvae (setting [5]), 90%; in the series with G. mellonella larvae (setting [6]), 90%. Also, the “In vivo G. mellonella tolerance order in μmol” value in the series on G. mellonella larvae was determined as 7th. Moreover, in the series on G. mellonella larvae, the “In vivo G. mellonella tolerance order in μmol (Normalized against no. of phens)” value amounted to 5th. For the same compound, in series [4], the solubility in water entry was “water-insoluble”. The “Cytotoxicity IC50 A549 cells” value in series [1] came to 251.94 µg/mL. Moreover, the values for the IC50 in series [1] and in series [2] were 376 µM and 70 µM, respectively. In addition, the “Cytotoxicity IC50 VERO cells” value in series [2] came out at 46.9 µg/mL.

On to “[Cu2(oda)(phen)4](ClO4)2·2.76H2O·EtOH [compound 2]”, for which the MIC90 in series [3] turned out to be 16.60 µg/mL; in series [3] (read-out: MIC90), 12.68 µM. This compound also gave an MIC100 against M. tuberculosis CDC1551 of 1.50 µg/mL. For the same compound, the MIC in the series with M. tuberculosis CDC1551 was determined as 1.15 µM. Besides, the “% Mortality” value turned out to be 0% in the series with G. mellonella larvae (10 μg per larvae (33.33 mg/kg)), 50% with G. mellonella larvae (20 μg per larvae (66.67 mg/kg)), 90% with G. mellonella larvae (setting [5]) and 90% in the series on G. mellonella larvae (setting [6]). Moreover, in the series on G. mellonella larvae, the “In vivo G. mellonella tolerance order in μmol” value is reported as 3rd. In addition, the “In vivo G. mellonella tolerance order in μmol (Normalized against no. of phens)” value in the series on G. mellonella larvae came out at 2nd. For the same compound, in series [4], the solubility in water result was “water-soluble”. In addition, in series [1], the “Cytotoxicity IC50 A549 cells” value was 0.98 µg/mL. For the same compound, in series [2], the “Cytotoxicity IC50 VERO cells” value was 11.7 µg/mL. Further, in series [2], the half-inhibitory concentration (IC50) was determined as 8.94 µM.

For the compound “[Mn2(oda)(phen)4(H2O)2][Mn2(oda)(phen)4(oda)2]·4H2O [compound 1]”, the values for the MIC90 in series [3] and in series [3] (read-out: MIC90) were 1.15 µg/mL and 0.47 µM, respectively. Besides, the “fold increase in potency compared to INH” value with M. tuberculosis CDC1551 is recorded as ~3 fold. In addition, the “fold increase in inhibitory activity against CDC1551 relative to H37Rv” value with M. tuberculosis CDC1551 (MIC CDC1551 vs H37Rv) stood at 3 fold. The “% Mortality” value stood at 0% in the series on G. mellonella larvae (10 μg per larvae (33.33 mg/kg)), 40% in the series on G. mellonella larvae (20 μg per larvae (66.67 mg/kg)), 90% in the series with G. mellonella larvae (setting [5]) and 90% in the series on G. mellonella larvae (setting [6]). Also, the “In vivo G. mellonella tolerance order in μmol” value with G. mellonella larvae is 1st. The “In vivo G. mellonella tolerance order in μmol (Normalized against no. of phens)” value in the series with G. mellonella larvae was 1st. The solubility in water result in series [4] is on record as “water-soluble”. Also, in series [1], the “Cytotoxicity IC50 A549 cells” value is > 512 µg/mL. In addition, the results for the concentration for half-maximal inhibition (IC50) in series [1] and in series [2] were > 208 µM and 153 µM, respectively. Moreover, in series [2], the “Cytotoxicity IC50 VERO cells” value was determined as 375 µg/mL.
